Patent publication US8466279B2, “Polymorphs of efavirenz” (Hetero Drugs Limited, priority 2004, dated 2013)

Tests used:
[1] = dissolution properties compared with the known forms; assay type: physicochemical
[2] = stability of the crystalline form; assay type: physicochemical

Row | dissolution properties [1] | stability over the time [2] | stability relative to reported forms ([2]; versus Form I, Form II, Form III, Form 1, Form 2, Form 3, Form 4 and Form 5) | Structure (SMILES)
1 | better dissolution properties |  |  | O=C1Nc2ccc(Cl)cc2[C@@](C#CC2CC2)(C(F)(F)F)O1 [amorphous efavirenz, (4S)-6-chloro-4-(cyclopropylethynyl)-1,4-dihydro-4-(trifluoromethyl)-2H-3,1-benzoxazin-2-one]
2 |  | stable over the time | at least as stable as the reported forms | O=C1Nc2ccc(Cl)cc2[C@@](C#CC2CC2)(C(F)(F)F)O1 [efavirenz form H1, (4S)-6-chloro-4-(cyclopropylethynyl)-1,4-dihydro-4-(trifluoromethyl)-2H-3,1-benzoxazin-2-one]
